According to PMC8758724, “Molecular mechanism of agonism and inverse agonism in ghrelin receptor” (Nature Communications, 2022):
Several values for one entry are separate records, joined by “and”; a condition that tells them apart may be missing. Identical values can stand only once. Entries after “also recorded” stand apart in the source; their conditions may differ. No end group written: not given here. *: point of attachment. Octanoyl = CCCCCCCC(=O)*

What was measured:
[1] = system: wild-type ghrelin receptor; assay: IP1 accumulation, wild-type ghrelin receptor, HEK293 cells, 37 °C 2 h, Cisbio IP1 kit; type: cell-based, human; conditions: WT
Protocol: Fig. 1 Overall structures of ghrelin receptors bound to inverse agonist and agonist. a Dose-dependent responses of endogenous agonist ghrelin, inverse agonist PF-05190457 and antagonist compound 21 containing 10 nM ghrelin peptide at wild-type ghrelin receptor measured by cellular IP1 accumulation assays. […] Data represent the mean ± SEM from n = 3 biologically independent experiments performed in triplicate. b View from within the plane of the membrane. The inverse agonist-bound ghrelin receptor is represented as a wheat cartoon, and PF-05190457 is shown as a marine blue sphere. Cryo-EM structure of the agonist ghrelin-bound ghrelin receptor-Gαo1-scFv16 complex. c Ghrelin peptides and receptors are shown as deep salmon spheres and aquamarine cartoons, respectively. The Go heterotrimer and scFv16 are shown in the gray cartoon. d View from the extracellular side of the membrane. […]
IP accumulation was measured using Cisbio IP1 assay kit (Cisbio, 62IPAPEB), which has been previously described. […] IP1 was quantified using Synergy H1 microplate reader (BioTek) with excitation at 320 nm, emission at 620 nm, and 665 nm. The accumulation of IP1 was calculated according to a standard dose–response curve in GraphPad Prism 8 (GraphPad Software). […]

[2] = system: ghrelin receptor mutants; assay: NanoBiT-G-protein dissociation, ghrelin receptor mutants, HEK293T cells, Gαio-LgBiT/Gγ-SmBiT, 3–5 min; type: cell-based, human; conditions: for ΔpEC50 (from the WT): single replicates
Protocol: Bars represent differences in calculated potency (pEC50) of ghrelin for mutations relative to the WT ghrelin receptor. Data are colored according to the extent of the effect. […], **P < 0.01 and ***P < 0.001. ns no significant difference, nd not detected. All data were analyzed by one-way analysis of variance (ANOVA) followed by Dunnett’s multiple comparison test, compared with the response of WT (P = 0.002, P = 0.002, P = 0.015, P < 0.001, P < 0.001, P = 0.732, P < 0.001, P = 0.843, P = 0.012, P < 0.001, P = 0.003, P < 0.001, P < 0.001 and P < 0.001 from left to right). […] See also Supplementary Figs. 6 and 7. d Detailed interaction of the octanoyl group of Ser^+3 with the key residues from cavity II and salt bridges between E124^3.33 and R283^6.55 are clearly observed in the ghrelin-bound structure.
For cryo-EM constructs, the full-length of wild-type human ghrelin receptor was subcloned into pFastBac1 vector with an N-terminal FLAG tag and C-terminal 10×His tag. We used the NanoBiT tethering strategy, in which the C-terminus of the ghrelin receptor was directly attached to the LgBiT subunit followed by a TEV protease cleavage site and a double MBP tag. Gβ1 was fused with a C-terminal HiBiT, together with Gγ2 were cloned into pFastBac dual vector. An engineered human Gαo1 with Gαo1 H domain deletion, named miniGαo1 was cloned into pFastBac1 according to published literature. The ghrelin-induced ghrelin receptor activity was measured by NanoBiT-G-protein dissociation assay using a chimeric Gαio protein according to the previous publication except for replacement Gαqo with Gαio[54]. The Gαio were generated by replacing the six amino acids of the C-terminal of Gαi with those from GαoA1. Other constructs including the full-length and various site-directed mutagenesis human ghrelin receptors were cloned into pcDNA3.1 vector for NanoBiT-G-protein dissociation assay. Ghrelin receptor, miniGαo1, and Gβ1γ2 were co-expressed in Sf9 insect cells (Expression System) using the Bac-to-Bac baculovirus expression system (ThermoFisher). The cell pellets were collected by centrifugation 48 h post infection and stored at −80 °C until use.
G-protein activation was detected by a NanoBiT-G-protein dissociation assay. In brief, HEK293T cells were plated in each well of a six-well plate at a concentration of 0.3 million/ml (2 mL per well). Plasmid transfection was performed with a mixture of 400 ng Gαio-LgBiT, 500 ng Gγ-SmBiT, 500 ng Gβ, 600 ng ghrelin receptor by Lipofectamine 2000 (ThermoFisher Scientific) in 200 μL of Opti-MEM (Gibco). After 1 day of transfection, cells in the six-well plate were digested and resuspended in complete medium DMEM (5% FBS, 1% antibiotic) and plated in a 96-well flat-bottomed white microplate. After 24 h, the cells were washed twice with D-PBS and incubated in 40 μL of 5 μM coelenterazine 400a (Maokangbio) solution diluted 0.01% BSA and 5 mM HEPES (pH 7.5)-containing HBSS (assay buffer) for 1 h at room temperature. Baseline luminescence was measured using a luminescent microplate reader (Tecan). Ghrelin (5×, diluted in the assay buffer) was added to the cells (10 μL) and incubated for 3–5 min at room temperature before the second measurement. The ligand-induced signal ratio was normalized to the baseline luminescence and fold-change signals over vehicle treatment were used to show G-protein dissociation response.

For “ghrelin: endogenous agonist, 28-amino acid peptide with octanoyl modification at the side chain of Ser+3 (GSS(Octanoyl)FLSPEHQRVQQRKESKKPPAKLQPR; UniProt Q9UBU3 24-51, looked up)”, the “activation potency” value [1] was “high activation potency as a full agonist”, the “ΔpEC50 (from the WT)” value ([2]; E124A) was -1.682 and -1.692 and -1.769 and the “ghrelin-induced activation, effect of mutation” value (from here on “ghrelin-induced activation”) ([2]; E124^3.33A) was “almost abolished the activity of the ghrelin receptor”. For the same substance, the “ghrelin-induced activation” value ([2]; E124^3.33A, listed as ghrelin peptide) was “remarkably reduced the activation potency”, the “ΔpEC50 (from the WT)” value ([2]; F38A) was -0.347 and -0.237 and -0.393 and the “ghrelin-induced activation” value ([2]; F279^6.51A) was “decreased the activation potency; also recorded: almost abolished the activity of the ghrelin receptor”. The “ΔpEC50 (from the WT)” value ([2]; F286A) was -1.001 and -0.994 and -1.053, the “ghrelin-induced activation” value ([2]; F286^6.58A) was “decreased the receptor activation” and the “ΔpEC50 (from the WT)” value ([2]; F290A) was -0.357 and -0.309 and -0.272. For the same substance, the “ΔpEC50 (from the WT)” value ([2]; F309A) was -0.421 and -0.648 and -0.344, the “ghrelin-induced activation” value ([2]; F309^7.39 mutant) was “impaired ghrelin-induced G-protein signaling” and the “ghrelin-induced activation” value ([2]; F312^7.42A) was “decreased the activation potency; also recorded: impaired ghrelin-induced G-protein signaling”. The “ΔpEC50 (from the WT)” value ([2]; I178A) was -0.256 and -0.542 and -0.472, the “ghrelin-induced activation” value ([2]; I178^4.60A) was “decreased the receptor activation” and the “ΔpEC50 (from the WT)” value ([2]; L181A) was -0.146 and -0.068 and -0.114. For the same substance, the “ΔpEC50 (from the WT)” value ([2]; L210A) was -0.704 and -0.734 and -0.866, the “ghrelin-induced activation” value ([2]; L210^5.36A) was “decreased the receptor activation” and the “ΔpEC50 (from the WT)” value ([2]; M213A) was -0.105 and -0.084 and -0.1. For the same substance, the “ΔpEC50 (from the WT)” value ([2]; N305A) was -0.736 and -0.893 and -0.758, the “ghrelin-induced activation” value ([2]; N305^7.35A) was “remarkably reduced the activation potency” and the “ΔpEC50 (from the WT)” value ([2]; Q302A) was -0.891 and -1.104 and -1.015. For the same substance, the “ghrelin-induced activation” value ([2]; Q302^7.32 mutant) was “impaired ghrelin-induced G-protein signaling”, the “ΔpEC50 (from the WT)” value ([2]; R102A) was -0.473 and -0.141 and -0.326 and the “ghrelin-induced activation” value ([2]; R283^6.55A) was “almost abolished the activity of the ghrelin receptor”. For the same substance, the “ghrelin-induced activation” value ([2]; R283^6.55A, listed as ghrelin peptide) was “almost abolished the efficacy”, the “ΔpEC50 (from the WT)” value ([2]; S123A) was -0.29 and -0.222 and -0.285 and the “ΔpEC50 (from the WT)” value ([2]; V214A) was -0.199 and -0.412 and -0.206. The “ghrelin-induced activation” value ([2]; W276^6.48A) was “decreased the activation potency; also recorded: almost abolished the activity of the ghrelin receptor” and the “ΔpEC50 (from the WT)” value ([2]; Y106A) was -0.423 and -0.136 and -0.417.
